Reference: the NIST ThermoML archive (doi:10.1016/j.jct.2015.10.002)

Assay: mn = molality of the nth substance listed, in mol/kg
Conditions: 101.3 kPa, Liquid; for viscosity: Capillary tube (Ostwald / Ubbelohde) method; for mass density: Vibrating tube method

OC[C@@H](O)[C@@H](O)[C@H](O)[C@@H](O)CO [D-sorbitol] + O
Conditions | mass density, m1 = 0.2 [kg/m3] | mass density, m1 = 0.4 [kg/m3] | mass density, m1 = 0.6 [kg/m3] | mass density, m1 = 0.8 [kg/m3] | mass density, m1 = 1 [kg/m3] | viscosity, m1 = 0.2 [mPa·s] | viscosity, m1 = 0.4 [mPa·s] | viscosity, m1 = 0.6 [mPa·s] | viscosity, m1 = 0.8 [mPa·s] | viscosity, m1 = 1 [mPa·s]
293.15 K | 1010.61 | 1022.43 | 1033.64 | 1044.32 | 1054.54 | 1.099 | 1.203 | 1.319 | 1.453 | 1.592
303.15 K | 1007.87 | 1019.5 | 1030.53 | 1041.07 | 1051.08 | 0.87 | 0.944 | 1.034 | 1.122 | 1.233
313.15 K | 1004.3 | 1015.77 | 1026.67 | 1037.06 | 1046.99 | 0.708 | 0.766 | 0.829 | 0.903 | 0.977
323.15 K | 999.96 | 1011.33 | 1022.12 | 1032.4 | 1042.26 | 0.588 | 0.634 | 0.686 | 0.738 | 0.797
